According to paper PMC4106721, “Structure of a Membrane-Embedded Prenyltransferase Homologous to UBIAD1” (PLoS Biology, 2014):

How the values were obtained:
Assay in all cases: isothermal titration calorimetry
Format in all cases: binding
[1] = target: T1, AfUbiA (Archaeoglobus fulgidus, UniProt O28625, N68A); details: 2 mM MgCl2, pH 7.5, 25 °C, 4 mM DM
T1 construct: gene AF_1648; full gene in modified pET vector, N-terminal His-tag removed with TEV protease, expressed in E. coli BL21(DE3), DM-solubilised for ITC or in lipidic cubic phase for crystals; likely monomer

[2] = target: T2, AfUbiA (Archaeoglobus fulgidus, UniProt O28625, K146A); details: 2 mM MgCl2, pH 7.5, 25 °C, 4 mM DM
T2 construct: gene AF_1648; full gene in modified pET vector, N-terminal His-tag removed with TEV protease, expressed in E. coli BL21(DE3), DM-solubilised for ITC or in lipidic cubic phase for crystals; likely monomer

[3] = target: T3, AfUbiA (Archaeoglobus fulgidus, UniProt O28625)
T3 construct: gene AF_1648; full gene in modified pET vector, N-terminal His-tag removed with TEV protease, expressed in E. coli BL21(DE3), DM-solubilised for ITC or in lipidic cubic phase for crystals; likely monomer
T3 sequence (O28625 1-303): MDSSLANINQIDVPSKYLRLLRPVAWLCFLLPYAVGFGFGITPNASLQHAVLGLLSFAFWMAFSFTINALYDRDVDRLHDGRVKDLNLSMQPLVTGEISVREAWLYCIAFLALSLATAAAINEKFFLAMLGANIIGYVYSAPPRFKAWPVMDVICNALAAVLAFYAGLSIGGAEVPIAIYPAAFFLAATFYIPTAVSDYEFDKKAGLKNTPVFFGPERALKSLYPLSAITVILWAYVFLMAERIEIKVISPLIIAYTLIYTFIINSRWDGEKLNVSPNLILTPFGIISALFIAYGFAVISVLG

[4] = target: T4, AfUbiA (Archaeoglobus fulgidus, UniProt O28625, R22A); details: 2 mM MgCl2, pH 7.5, 25 °C, 4 mM DM
T4 construct: gene AF_1648; full gene in modified pET vector, N-terminal His-tag removed with TEV protease, expressed in E. coli BL21(DE3), DM-solubilised for ITC or in lipidic cubic phase for crystals; likely monomer

[5] = target: T5, AfUbiA (Archaeoglobus fulgidus, UniProt O28625, D202A)
T5 construct: gene AF_1648; full gene in modified pET vector, N-terminal His-tag removed with TEV protease, expressed in E. coli BL21(DE3), DM-solubilised for ITC or in lipidic cubic phase for crystals; likely monomer

[6] = target: T6, AfUbiA (Archaeoglobus fulgidus, UniProt O28625, D198A)
T6 construct: gene AF_1648; full gene in modified pET vector, N-terminal His-tag removed with TEV protease, expressed in E. coli BL21(DE3), DM-solubilised for ITC or in lipidic cubic phase for crystals; likely monomer

[7] = target: T7, AfUbiA (Archaeoglobus fulgidus, UniProt O28625, D72A); details: 2 mM MgCl2, pH 7.5, 25 °C, 4 mM DM
T7 construct: gene AF_1648; full gene in modified pET vector, N-terminal His-tag removed with TEV protease, expressed in E. coli BL21(DE3), DM-solubilised for ITC or in lipidic cubic phase for crystals; likely monomer
T7 sequence (O28625 entry or part of it D72A): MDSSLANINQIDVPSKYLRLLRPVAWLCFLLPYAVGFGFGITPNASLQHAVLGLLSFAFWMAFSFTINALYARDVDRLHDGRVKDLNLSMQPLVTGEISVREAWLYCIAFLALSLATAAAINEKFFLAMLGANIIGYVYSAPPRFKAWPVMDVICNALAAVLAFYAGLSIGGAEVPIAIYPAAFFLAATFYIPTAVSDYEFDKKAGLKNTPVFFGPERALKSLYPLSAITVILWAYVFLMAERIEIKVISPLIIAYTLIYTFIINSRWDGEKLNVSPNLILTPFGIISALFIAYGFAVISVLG

T2 sequence (O28625 entry or part of it K146A): as the sequence (O28625 entry or part of it D72A) above, with A72D, K146A counted along it
T4 sequence (O28625 entry or part of it R22A): as the sequence (O28625 entry or part of it D72A) above, with R22A, A72D counted along it
T1 sequence (O28625 entry or part of it N68A): as the sequence (O28625 entry or part of it D72A) above, with N68A, A72D counted along it
T5 sequence (O28625 entry or part of it D202A): as the sequence (O28625 entry or part of it D72A) above, with A72D, D202A counted along it
T6 sequence (O28625 entry or part of it D198A): as the sequence (O28625 entry or part of it D72A) above, with A72D, D198A counted along it

Kd [3]: 3.2 ± 0.1 µM
Kd [5]: 67 ± 9 µM
Kd [6]: 144 ± 13 µM
Compound: CC(C)=CCC/C(C)=C/COP(=O)(O)OP(=O)(O)O [geranyl diphosphate]
no binding detected (N.D.) [1]: Four of the mutations completely abolished GPP binding
no binding detected (N.D.) [2]: Four of the mutations completely abolished GPP binding
no binding detected (N.D.) [4]: Four of the mutations completely abolished GPP binding
no binding detected (N.D.) [7]: Four of the mutations completely abolished GPP binding
